Test results: patent publication US11969412B2, “Methods and compounds for the treatment or prevention of hypercytokinemia and severe influenza” (Poolbeg Pharma (UK) Limited, priority 2017, dated 2024)
Like-named read-outs stand apart in the source and are kept apart here.

Columns and labels:
[1] = system: immune cells (PBMCs plus granulocytes stimulated with A549 viral soup); experiment: cells; type: cell-based, human
[2] = system: p38MAPK; experiment: Western blotting of p38MAPK and HSP27 phosphorylation in A549 cells after A549 viral soup; type: cell-based, human; conditions: western blot
Protocol: In vitro data were generated from A549 cells to test the effect of A549 viral soup application on p38 activation as measured by western blotting of the phosphorylation status of p38MAPK itself and downstream signalling target, HSP27. For western blotting confluent cells were washed in PBS and lysed in RIPA with protease inhibitor (Sigma-P8340), phosphatase inhibitor cocktails 2 and 3 (Sigma P5726 and P0044) and phosphatase inhibitors Na3VO4 and NaF on ice. Protein concentrations were determined using the Pierce BCA Protein Assay Kit and equal concentrations of each sample created in 4× Laemmli sample buffer (BIO-RAD 161-0747) with 2-mercaptoethanol. Samples were run on a 12% gel and then transferred on to nitrocellulose. Membranes were blocked using 5% milk powder, then hybridised with p38 MAPK rabbit antibody (Cell Signalling Technologies, cat. no. 9212S) and phosphorylated p38 MAPK rabbit antibody (Cell Signalling Technologies, cat. no. 9211S), or HSP27 antibody (Cell signalling Technologies, cat. no. 2402) and phospho-HSP27 antibody (Cell signalling Technologies, cat. no. 9709). Secondary antibodies were anti-rabbit HRP (Cell signalling Technologies catalogue no. CS7074P2) and anti-mouse HRP (Cell signalling, catalogue no. 7076S), respectively. Membranes were stripped for re-probing using Restore™ PLUS Western Blot Stripping Buffer (Life technologies #46430). […]

[3] = system: p38MAPK; experiment: Western blotting of HSP27 phosphorylation in HUVEC cells after HBEC viral soup; type: cell-based, human; conditions: pre-incubation, western blot
Protocol: For western blotting confluent cells were washed in PBS and lysed in RIPA with protease inhibitor (Sigma-P8340), phosphatase inhibitor cocktails 2 and 3 (Sigma P5726 and P0044) and phosphatase inhibitors Na3VO4 and NaF on ice. […] The membranes were treated with Amersham ECL Prime Western Blotting Detection Reagent (GE/Amersham #RPN2232) and imaged using ChemiDoc™ Touch Imaging System (BIORAD). Analysis was performed using the Image Lab software.
In vitro data were generated from HUVEC cells to test the effect of HBEC viral soup application on p38 activation as measured by western blotting of the phosphorylation status of the p38MAPK downstream signalling target, HSP27.

[4] = system: immune cells (PBMCs); type: cell-based, human
[5] = system: p38MAPK; experiment: Western blotting of HSP27 phosphorylation in immune cells (PBMCs) after A549 viral soup; type: cell-based, human; conditions: pre-incubation, western blot
[6] = system: influenza virus; conditions: cited from earlier work; for survival rate at Day 20 of infection: controls 14%
[7] = system: endothelial cells (HUVECs); experiment: cells; type: cell-based, human
[8] = system: HBEC cells; experiment: Inflammatory mediator production in HBEC cells after HBEC viral soup (MSD analysis); type: cell-based, human; conditions: HBECs treated prior to HBEC viral soup
[9] = Homo sapiens, A549, read-out: IC50 IL1B
[10] = Homo sapiens, A549, read-out: IC50 IL6
[11] = Homo sapiens, A549, read-out: IC50 IL8
[12] = Homo sapiens, A549, read-out: IC50 TNFa
[13] = Homo sapiens, HUVEC, read-out: IC50 IL10

Compound: CC[C@H]1OC(=O)[C@H](C)[C@@H](O[C@H]2C[C@@](C)(OC)[C@@H](O)[C@H](C)O2)[C@H](C)[C@@H](O[C@@H]2O[C@H](C)C[C@H](N(C)C)[C@H]2O)[C@](C)(O)C[C@@H](C)CN(C)[C@H](C)[C@@H](O)[C@]1(C)O [Azithromycin]
- iMax IL1B [1]: 50%
- iMax IL6 [1]: 45%
- iMax IL8 [1]: 46%
- iMax TNFa [1]: 63%
- IC50 [1, 9]: 0.5 nM
- IC50 [1, 10]: 119 nM
- IC50 [1, 11]: 0.8 nM
- IC50 [1, 12]: 86.9 nM

Compound: Cc1cc(F)ccc1-c1nc(NC(CO)CO)nc2c1ccc(=O)n2-c1c(F)cccc1F [Dilmapimod]
- induction of both p38MAPK and HSP27 phosphorylation [2]: dose dependently inhibit
- induction of HSP27 phosphorylation [3]: dose dependently inhibit
- A549 viral soup induced release of TNFα, IL-1-β, IL-6 and CXCL8 [4]: significantly attenuate
- induction of HSP27 phosphorylation [5]: dose dependently inhibit

Compound: CC[C@H]1OC(=O)[C@H](C)[C@@H](O[C@H]2C[C@@](C)(OC)[C@@H](O)[C@H](C)O2)[C@H](C)[C@@H](O[C@@H]2O[C@H](C)C[C@H](N(C)C)[C@H]2O)[C@](C)(O)C[C@@H](C)C(=O)[C@H](C)[C@@H](O)[C@]1(C)O [EM]
- survival rate at Day 20 of infection ([6]; 1.0 mg/kg/d): 42%
- survival rate of mice infected with influenza virus ([6]; 3.3 mg/kg/d intraperitoneally, Days 1-6 after infection): significantly improved
- survival rate at Day 20 of infection ([6]; 3.3 mg/kg/d): 57%

Compound: Cn1cc2c(-c3ccc(F)cc3)c(-c3ccncc3)c(-c3ccc(F)cc3)nc2n1 [Formula III]
- production of IL-8 and IP-10 [7]: attenuate
- production of TNFα and IL-8 [4]: attenuate
- release of IL-6 and IP-10 [8]: attenuated

Compound: OCCCn1cc2c(-c3ccc(F)cc3)c(-c3ccncc3)c(-c3ccc(F)cc3)nc2n1 [Formula II]
- attenuating the inflammatory response in endothelial cells, compared with Formula III [7]: consistently better effects than the compound of Formula III
- production of IL-8 and IP-10 [7]: attenuate
- attenuating the inflammatory response in immune cells, compared with Formula III [4]: consistently better effects than the compound of Formula III
- production of MIP-1a and IL-8 (TNFa plus IL-6 as stimulus) and TNFa and IL-8 (A549 virus soup as stimulus) [4]: attenuate

Compound: C[C@H]1C[C@@H]2[C@H]([C@@H](O)C[C@@]3(C)[C@H]2CC[C@]3(O)C(=O)CO)[C@@]2(C)C=CC(=O)C=C12 [Methyl Prednisolone]
- iMax IL1B [1]: 77%
- iMax IL6 [1]: 57%
- iMax IL8 [1]: 90%
- iMax TNFa [1]: 79%
- IC50 [1, 9]: 8.4 nM
- IC50 [1, 10]: 36.6 nM
- IC50 [1, 11]: 8.4 nM
- IC50 [1, 12]: 20.2 nM

Compound: CNC(=O)c1ccc(C)c(-n2c(C)cc(OCc3ccc(F)cc3F)c(Br)c2=O)c1 [PH797804]
- induction of both p38MAPK and HSP27 phosphorylation [2]: dose dependently inhibit
- iMax IL1B [1]: 79%
- iMax IL8 [1]: 87%
- iMax TNFa [1]: 91%
- IC50 [1, 9]: 9.7 nM
- IC50 [1, 11]: 2.3 nM
- IC50 [1, 12]: 3.9 nM
- iMax IL8 [7]: 86%
- iMax IL10 [7]: 88%
- iMax MCP1 [7]: 36%
- IC50 ([7]; Homo sapiens, HUVEC, read-out: IC50 IL8): 28.9 nM
- IC50 [7, 13]: 7.5 nM
- IC50 ([7]; Homo sapiens, HUVEC, read-out: IC50 MCP1): 13.1 nM
- A549 viral soup induced release of TNFα, IL-1-β, IL-6 and CXCL8 [4]: significantly attenuate

Compound: CCc1ccc(CCOc2ccc(CC3SC(=O)NC3=O)cc2)nc1 (centres unmarked) [Pioglitazone]
- iMax IL6 [1]: 41%
- iMax IL8 [1]: 37%
- IC50 [1, 10]: 0.02 nM
- IC50 [1, 11]: 0.1 nM

Compound: CC[C@H](C)C(=O)O[C@H]1C[C@H](O)C=C2C=C[C@H](C)[C@H](CC[C@@H](O)C[C@@H](O)CC(=O)O)[C@H]21 [Pravastatin]
- iMax IL10 [7]: 35%
- IC50 [7, 13]: 78 nM

Compound: Nc1ccc2ncnc(NCCc3ccc(Oc4ccccc4)cc3)c2c1 [QNZ (EVP4593)]
- iMax IL8 [1]: 47%
- iMax TNFa [1]: 37%
- IC50 ([1]; read-out: IC50 IL8): 0.2 nM
- IC50 ([1]; read-out: IC50 TNFa): 43.6 nM
- iMax IL8 [7]: 60%
- iMax IL10 [7]: 72%
- iMax MCP1 [7]: 44%
- IC50 ([7]; read-out: IC50 IL8): 6.5 nM
- IC50 ([7]; read-out: IC50 IL10): 3.3 nM
- IC50 ([7]; read-out: IC50 MCP1): 3.84 nM

Compound: COc1cc(F)c(F)c(Nc2ccc(I)cc2F)c1NS(=O)(=O)C1(C[C@H](O)CO)CC1 [Refametinib]
- dose-dependent inhibition of IP10 production [7]: Neither Refametinib nor Selumetinib showed dose-dependent inhibition
- levels of IP10 at higher drug concentrations [7]: appeared to increase

Compound: O=C(Nc1c(Cl)cncc1Cl)c1ccc(OC(F)F)c(OCC2CC2)c1 [Roflumilast]
- iMax IL8 [1]: 31%
- iMax TNFa [1]: 74%
- IC50 [1, 11]: 0.09 nM
- IC50 [1, 12]: 10.8 nM

Compound: Selumetinib
- dose-dependent inhibition of IP10 production [7]: Neither Refametinib nor Selumetinib showed dose-dependent inhibition
- levels of IP10 at higher drug concentrations [7]: appeared to increase
